This note sets out measurements from patent US12391685B2, “Inhibitors of RNA-guided nuclease target binding and uses thereof” (THE BROAD INSTITUTE, INC., priority 2018, dated 2025).

“Also recorded” adds a separate entry of the source. Where two headings read alike, the source gives them in different places.

Data set [1] concerns the target T1, SpCas9 (Streptococcus pyogenes serotype M1, UniProt Q99ZW2). The experiment in a line: eGFP-disruption assay in U2OS.eGFP.PEST cells. Type of data set: cell-based, S. pyogenes. As to conditions: for inhibition of SpCas9 in the eGFP-disruption assay (in words) / inhibition at 15 µM: U2OS.eGFP.PEST cells; for inhibition at 15 µM: screen of structural analogs of BRD7087, 15 μM compound. Details: host or cells: U2OS.eGFP.PEST. Put shortly:
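U2OS.eGFP-PEST cells were nucleofected with SpCas9 plus eGFP Site #1 sgRNA, as plasmids or as preformed RNP (20 pmol). Compound or DMSO was present for 24 h post-transfection. Fixed cells were imaged with a nuclear counterstain, and the % GFP-negative cell population was quantified by automated microscopy.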

Data set [2] addresses T1, SpCas9. Type of data set: cell-based, S. pyogenes. Details: made in house; host or cells: E. coli Rosetta (DE3). As to conditions: not told. The source says:
FIGS. 8A-8H—Structure-activity analysis and inhibition of dCas9-based transcriptional upregulation. (FIG. 8A) Structure-activity relationship studies of BRD3433 in the eGFP-disruption assay in U2OS.eGFP.PEST cells. The set of functional groups on top represents variation at the 1-N-cap position (R^1) whereas those at the bottom represents the functional group variation at the 8-position (R^2). Bar plot depicts the reduction in the activity of different structural analogs with respect to that of BRD3433. Asterisk-labeled compounds contain a methyl group at the 4-N position, while others have a proton. The data are an average of two biological replicates. (FIG. 8B) Inhibition of dSpCas9-based transcriptional upregulation of HBG1 gene in HEK293FT cells by BRD7087. Cells were transfected with dSpCas9, MS2.p65.HSF1.GFP plasmids along with either RFP or HBG1 gRNA plasmid and incubated in the presence of the small molecules at the indicated concentration for 48 h before RT-qPCR analysis. Data represents average of 6 technical replicates. Y-axis represents % fold change in the compound activity with respect to BRD7087. […] (FIG. 8D) Cellular impermeability of the anti-CRISPR protein AcrllA4 assessed by lack of SpCas9 inhibition in the eGFP-disruptoin assay when AcrLLA4 is incubated in the media. […] (FIG. 8F) Human plasma stability of compound as determined by UPLC/MS in MRM method. […]

Another data set in a line: Plasma stability assay. Type of data set: in vitro ADME. Conditions: 5 μM, 50% human plasma in PBS, 5 h. As to the method: Plasma stability assay. Human plasma stability of the compounds was performed following a reported protocol (Di et al., 2005). BRD0539 (5 μM) was incubated with 50% human plasma (K2 EDTA, BioreclamationIVT) in PBS for 5 h in triplicate. Eucatropine (Aldrich) and verapamil (Acros) were included as the positive and negative control, respectively. The samples were analyzed by UPLC-MS (AB Sciex 4500 with Waters Acquity FTN) with compounds detected by […] mass spectrometer. All integration and analysis were performed using DiscoveryQuant software.

T1 sequence (Q99ZW2 whole entry): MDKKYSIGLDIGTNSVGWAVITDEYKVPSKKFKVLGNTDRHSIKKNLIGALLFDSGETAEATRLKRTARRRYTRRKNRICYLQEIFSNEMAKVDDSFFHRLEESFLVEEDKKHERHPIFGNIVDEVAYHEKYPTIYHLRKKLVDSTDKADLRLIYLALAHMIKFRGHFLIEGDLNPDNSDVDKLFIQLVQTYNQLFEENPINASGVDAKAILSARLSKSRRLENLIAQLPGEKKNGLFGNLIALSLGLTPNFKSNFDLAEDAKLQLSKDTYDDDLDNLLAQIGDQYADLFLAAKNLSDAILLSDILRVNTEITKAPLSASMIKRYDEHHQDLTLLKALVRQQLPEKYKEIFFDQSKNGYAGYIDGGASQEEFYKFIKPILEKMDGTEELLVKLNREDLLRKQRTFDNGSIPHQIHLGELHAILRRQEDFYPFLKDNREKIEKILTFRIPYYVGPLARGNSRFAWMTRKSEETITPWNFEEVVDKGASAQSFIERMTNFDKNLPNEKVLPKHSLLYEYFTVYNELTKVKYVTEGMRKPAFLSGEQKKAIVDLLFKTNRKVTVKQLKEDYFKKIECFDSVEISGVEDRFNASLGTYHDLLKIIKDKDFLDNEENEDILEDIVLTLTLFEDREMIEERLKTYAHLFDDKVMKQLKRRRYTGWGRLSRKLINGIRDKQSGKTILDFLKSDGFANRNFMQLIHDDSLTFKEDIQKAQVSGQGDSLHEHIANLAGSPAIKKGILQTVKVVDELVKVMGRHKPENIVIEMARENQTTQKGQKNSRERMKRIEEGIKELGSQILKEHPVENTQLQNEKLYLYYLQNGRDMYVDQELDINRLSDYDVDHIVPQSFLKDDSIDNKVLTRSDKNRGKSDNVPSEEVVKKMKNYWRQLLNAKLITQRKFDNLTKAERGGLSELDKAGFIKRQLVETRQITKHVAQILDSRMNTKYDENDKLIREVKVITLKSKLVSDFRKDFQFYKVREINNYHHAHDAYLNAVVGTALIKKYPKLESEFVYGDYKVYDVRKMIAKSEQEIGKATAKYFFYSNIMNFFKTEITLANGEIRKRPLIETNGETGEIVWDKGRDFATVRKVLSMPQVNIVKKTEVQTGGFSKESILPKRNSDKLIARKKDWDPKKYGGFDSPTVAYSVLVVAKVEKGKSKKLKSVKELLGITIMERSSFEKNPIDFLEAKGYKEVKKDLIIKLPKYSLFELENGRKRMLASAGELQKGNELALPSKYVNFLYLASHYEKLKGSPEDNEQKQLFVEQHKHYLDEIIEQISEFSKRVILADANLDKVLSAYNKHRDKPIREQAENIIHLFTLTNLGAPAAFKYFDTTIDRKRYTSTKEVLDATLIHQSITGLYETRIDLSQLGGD

As for `OC[C@H]1Nc2ccc(-c3cccc(F)c3)cc2[C@H]2[C@@H]1CCN2Cc1ccncc1` [BRD7087, ((3aR,4S,9bR)-8-(3-Fluorophenyl)-1-(pyridin-4-ylmethyl)-2,3,3a,4,5,9b-hexahydro-1H-pyrrolo[3,2-c]quinolin-4-yl) methanol], on SpCas9 [1], the “inhibition of SpCas9 in the eGFP-disruption assay (in words)” value is reported as “dose-dependent inhibition”. Moreover, on SpCas9 [1] (read-out: inhibition of SpCas9), the inhibition at 10 µM was about 44%.

Consider `Cc1ccc(S(=O)(=O)N2CC[C@@H]3[C@H](CO)Nc4ccc(-c5ccccc5F)cc4[C@@H]32)cc1` [BRD0539, ((3aR,4R,9bR)-8-(2-fluorophenyl)-1-tosyl-2,3,3a,4,5,9b-hexahydro-1H-pyrrolo[3,2-c]quinolin-4-yl) methanol], for which the EC50 came out at 11.5 µM at SpCas9 [1] (EC50, dose-dependent inhibition of SpCas9, U2OS.eGFP.PEST cells, 24 h, tested from 2.8-17.3 μM) and 11 µM at SpCas9 [1] (eGFP-disruption assay, read-out: apparent EC50). In addition, the “inhibition of SpCas9 in the eGFP-disruption assay (in words)” value against SpCas9 [1] is recorded as “dose-dependent inhibitory activity; also recorded: able to inhibit”. Besides, the “improvement in potency over BRD7087” value on SpCas9 [1] (eGFP-disruption assay) worked out at 1.8 fold. In addition, the inhibition at 15 µM at SpCas9 [1] (24 h, read-out: Average Inhibition activity) was 64.2%; on SpCas9 [1] (24 h, read-out: Inhibition activity Rep 1), 61%; at SpCas9 [1] (24 h, read-out: Inhibition activity Rep 2), 67.4%. Moreover, on SpCas9 [1] (tested from 2.5-15 μM, 24 h), the “potency among the four stereoisomers” value was “most potent”. For the same compound, the “cell permeability (in words)” value on SpCas9 [2] is on record as “cell permeable”. Moreover, the “human plasma stability (in words)” value in “Plasma stability assay” is given as “stable in human plasma”.

As usually defined, the inhibition is the relative decrease from the control value, in per cent. In general, EC50 refers to the concentration at which the effect is half-maximal.
